Measurements from ChEMBL document CHEMBL3885881, “DrugMatrix”.

Species: Rattus norvegicus
Assay: DrugMatrix - Regimen: Daily Repeat
Type: toxicity, organism-based, Sprague-Dawley
Set-up: regimen Daily Repeat, gender Male, age 6-8 weeks
Conditions: in vivo, po, 12 mg/kg, route oral GAVAGE, dose level Low, vehicle .5 % CMC; for ABSOLUTE BASOPHIL / ABSOLUTE EOSINOPHIL / ABSOLUTE LYMPHOCYTE / ABSOLUTE MONOCYTE / ABSOLUTE SEGMENTED NEUTROPHIL / BASOPHIL / EOSINOPHIL / ERYTHROCYTE COUNT / HEMATOCRIT / HEMOGLOBIN / LEUKOCYTE COUNT / LYMPHOCYTE / MEAN CORPUSCULAR HEMOGLOBIN / MEAN CORPUSCULAR HEMOGLOBIN CONCENTRATION / MEAN CORPUSCULAR VOLUME / MONOCYTE / NEUTROPHIL / NUCLEATED RED BLOOD CELLS / PLATELET COUNT: tissue Blood; for ALANINE AMINOTRANSFERASE / ALBUMIN / ALKALINE PHOSPHATASE / ASPARTATE AMINOTRANSFERASE / BLOOD UREA NITROGEN / CARBON DIOXIDE / CHLORIDE / CHOLESTEROL / CREATINE PHOSPHOKINASE / CREATININE / GLUCOSE / LACTATE DEHYDROGENASE / LIPASE / PHOSPHORUS / POTASSIUM / SODIUM / TOTAL BILIRUBIN / TOTAL PROTEIN / URIC ACID: tissue Plasma

CC(=O)O[C@]1(C(C)=O)CC[C@H]2[C@@H]3C=C(C)C4=CC(=O)CC[C@]4(C)[C@H]3CC[C@@]21C [MEGESTROL ACETATE]
ABSOLUTE BASOPHIL (72 h, time 3 day): 0 CELLS/uL
ABSOLUTE EOSINOPHIL (72 h, time 3 day): 84.67 CELLS/uL
ABSOLUTE LYMPHOCYTE (72 h, time 3 day): 11039.33 CELLS/uL
ABSOLUTE MONOCYTE (72 h, time 3 day): 40 CELLS/uL
ABSOLUTE SEGMENTED NEUTROPHIL (72 h, time 3 day): 1136 CELLS/uL
BASOPHIL (72 h, time 3 day): 0%
EOSINOPHIL (72 h, time 3 day): 0.67%
ERYTHROCYTE COUNT (72 h, time 3 day): 5.83 x10E6/uL
HEMATOCRIT (72 h, time 3 day): 37.03%
HEMOGLOBIN (72 h, time 3 day): 13.83 G/DL
LEUKOCYTE COUNT (72 h, time 3 day): 12.3 x10E3/uL
LYMPHOCYTE (72 h, time 3 day): 89.67%
MEAN CORPUSCULAR HEMOGLOBIN (72 h, time 3 day): 23.77 pg
MEAN CORPUSCULAR HEMOGLOBIN CONCENTRATION (72 h, time 3 day): 37.37 G/DL
MEAN CORPUSCULAR VOLUME (72 h, time 3 day): 63.5 fL
MONOCYTE (72 h, time 3 day): 0.33%
NEUTROPHIL (72 h, time 3 day): 9.33%
NUCLEATED RED BLOOD CELLS (72 h, time 3 day): 0 /100WBC
PLATELET COUNT (72 h, time 3 day): 1299.33 x10E3/uL
ALANINE AMINOTRANSFERASE (72 h, time 3 day): 52 u/L
ALBUMIN (72 h, time 3 day): 4.43 G/DL
ALKALINE PHOSPHATASE (72 h, time 3 day): 394.33 u/L
ASPARTATE AMINOTRANSFERASE (72 h, time 3 day): 80.67 u/L
BLOOD UREA NITROGEN (72 h, time 3 day): 16.33 mg/dL
CARBON DIOXIDE (72 h, time 3 day): 25.33 mmol/L
CHLORIDE (72 h, time 3 day): 103.67 MEQ/L
CHOLESTEROL (72 h, time 3 day): 66.33 mg/dL
CREATINE PHOSPHOKINASE (72 h, time 3 day): 195 u/L
CREATININE (72 h, time 3 day): 0.25 mg/dL
GLUCOSE (72 h, time 3 day): 179.67 mg/dL
LACTATE DEHYDROGENASE (72 h, time 3 day): 177.33 u/L
LIPASE (72 h, time 3 day): 8 u/L
PHOSPHORUS (72 h, time 3 day): 13.6 mg/dL
POTASSIUM (72 h, time 3 day): 6.09 MEQ/L
SODIUM (72 h, time 3 day): 146.33 MEQ/L
TOTAL BILIRUBIN (72 h, time 3 day): 0.27 mg/dL
TOTAL PROTEIN (72 h, time 3 day): 6.43 G/DL
URIC ACID (72 h, time 3 day): 1.73 mg/dL
ABSOLUTE BASOPHIL (120 h, time 5 day): 0 CELLS/uL
ABSOLUTE EOSINOPHIL (120 h, time 5 day): 115.33 CELLS/uL
ABSOLUTE LYMPHOCYTE (120 h, time 5 day): 7823.33 CELLS/uL
ABSOLUTE MONOCYTE (120 h, time 5 day): 0 CELLS/uL
ABSOLUTE SEGMENTED NEUTROPHIL (120 h, time 5 day): 461.33 CELLS/uL
BASOPHIL (120 h, time 5 day): 0%
EOSINOPHIL (120 h, time 5 day): 1.33%
ERYTHROCYTE COUNT (120 h, time 5 day): 5.55 x10E6/uL
HEMATOCRIT (120 h, time 5 day): 36.1%
HEMOGLOBIN (120 h, time 5 day): 13.53 G/DL
LEUKOCYTE COUNT (120 h, time 5 day): 8.4 x10E3/uL
LYMPHOCYTE (120 h, time 5 day): 93.33%
MEAN CORPUSCULAR HEMOGLOBIN (120 h, time 5 day): 24.37 pg
MEAN CORPUSCULAR HEMOGLOBIN CONCENTRATION (120 h, time 5 day): 37.53 G/DL
MEAN CORPUSCULAR VOLUME (120 h, time 5 day): 65.03 fL
MONOCYTE (120 h, time 5 day): 0%
NEUTROPHIL (120 h, time 5 day): 5.33%
NUCLEATED RED BLOOD CELLS (120 h, time 5 day): 0 /100WBC
PLATELET COUNT (120 h, time 5 day): 1160 x10E3/uL
ALANINE AMINOTRANSFERASE (120 h, time 5 day): 48.33 u/L
ALBUMIN (120 h, time 5 day): 4.4 G/DL
ALKALINE PHOSPHATASE (120 h, time 5 day): 429.67 u/L
ASPARTATE AMINOTRANSFERASE (120 h, time 5 day): 75.33 u/L
BLOOD UREA NITROGEN (120 h, time 5 day): 15 mg/dL
CARBON DIOXIDE (120 h, time 5 day): 27.33 mmol/L
CHLORIDE (120 h, time 5 day): 102.33 MEQ/L
CHOLESTEROL (120 h, time 5 day): 63.33 mg/dL
CREATINE PHOSPHOKINASE (120 h, time 5 day): 205 u/L
CREATININE (120 h, time 5 day): 0.16 mg/dL
GLUCOSE (120 h, time 5 day): 151.67 mg/dL
LACTATE DEHYDROGENASE (120 h, time 5 day): 111.33 u/L
LIPASE (120 h, time 5 day): 8.33 u/L
PHOSPHORUS (120 h, time 5 day): 12.33 mg/dL
POTASSIUM (120 h, time 5 day): 5.99 MEQ/L
SODIUM (120 h, time 5 day): 148.33 MEQ/L
TOTAL BILIRUBIN (120 h, time 5 day): 0.3 mg/dL
TOTAL PROTEIN (120 h, time 5 day): 6.2 G/DL
URIC ACID (120 h, time 5 day): 0.93 mg/dL
